Test system: gene promoters in NT2/D1-R1 control and DNMT3B knockdown cells
Assay: Genome-wide promoter methylation analysis, HumanMethylation27 BeadChip (Table 15)
Format: cell-based, human
Settings: sh-ctrl + 5aza
Procedure: DNA methylation analysis was performed in samples in triplicate using the […] […] assay with the HumanMethylation27 BeadChip ([…]) and the BeadChip was scanned on the BeadArray Reader ([…]), according to the manufacturer's instructions. Raw data was normalized and analyzed with Genome Studio software ([…]). The HumanMethylation27 BeadChip assays 27,578 CpGs covering more than 14,000 genes, mostly from promoter regions. […] Hierarchical clustering was performed as stated above. HumanMethylation27 BeadChip data and gene expression microarray data were submitted to NCBI GEO.

Structure (SMILES): Nc1ncn([C@H]2C[C@H](O)[C@@H](CO)O2)c(=O)n1 [5aza]
- ABCC1 cg20158248 promoter methylation Mean: 0.480
- ACP1 cg27226618 promoter methylation Mean: 0.786
- ADCY4 cg16761581 promoter methylation Mean: 0.609
- ADRA2A cg26926521 promoter methylation Mean: 0.939
- ALDH1A3 cg19224278 promoter methylation Mean: 0.443
- ALKBH4 cg07404418 promoter methylation Mean: 0.458
- ALX4 cg04549333 promoter methylation Mean: 1.136
- ALX4 cg04970352 promoter methylation Mean: 0.964
- ALX4 cg19358442 promoter methylation Mean: 1.126
- ANKRD13C cg19342782 promoter methylation Mean: 0.544
- ANKRD45 cg15883716 promoter methylation Mean: 1.017
- APC cg16970232 promoter methylation Mean: 0.424
- BLOC1S2 cg26610808 promoter methylation Mean: 0.575
- BTBD5 cg00660989 promoter methylation Mean: 0.347
- BTNL8 cg24024214 promoter methylation Mean: 1.068
- C1QL1 cg13818573 promoter methylation Mean: 0.460
- C1orf188 cg15731815 promoter methylation Mean: 0.541
- C10orf107 cg16063112 promoter methylation Mean: 0.354
- C14orf173 cg24404909 promoter methylation Mean: 0.379
- C16orf60 cg17858663 promoter methylation Mean: 0.245
- C19orf4 cg07379574 promoter methylation Mean: 1.078
- C19orf22 cg18022193 promoter methylation Mean: 0.288
- CAMK1G cg27337148 promoter methylation Mean: 1.021
- CD58 cg21039631 promoter methylation Mean: 0.251
- CDKN2B cg04675937 promoter methylation Mean: 0.256
- CDKN2B cg08390209 promoter methylation Mean: 0.280
- CDX1 cg15452204 promoter methylation Mean: 0.595
- CEACAM4 cg10237469 promoter methylation Mean: 0.718
- CEACAM7 cg19623751 promoter methylation Mean: 0.886
- CGI-38 cg13067215 promoter methylation Mean: 0.513
- CHD5 cg00282347 promoter methylation Mean: 1.005
- CHMP2A cg14042128 promoter methylation Mean: 0.541
- COL11A1 cg12884406 promoter methylation Mean: 0.415
- COPS7B cg05422352 promoter methylation Mean: 0.579
- CRSP7 cg24459023 promoter methylation Mean: 0.301
- CSPG3 cg06952310 promoter methylation Mean: 0.480
- CSTF2T cg06712026 promoter methylation Mean: 0.431
- CTAGE1 cg02847216 promoter methylation Mean: 0.955
- CUL3 cg09509863 promoter methylation Mean: 0.411
- CYP4F12 cg25813714 promoter methylation Mean: 0.959
- DCTD cg14892066 promoter methylation Mean: 0.243
- DDEF2 cg22190705 promoter methylation Mean: 0.329
- DEFB118 cg03014957 promoter methylation Mean: 0.690
- DNASE2 cg07955356 promoter methylation Mean: 0.275
- DPH1 cg11516377 promoter methylation Mean: 0.465
- DYRK1B cg18851831 promoter methylation Mean: 1.262
- EIF2B3 cg16604218 promoter methylation Mean: 0.543
- ELSPBP1 cg19404979 promoter methylation Mean: 0.655
- ENOSF1 cg16112050 promoter methylation Mean: 1.028
- EPN3 cg24006361 promoter methylation Mean: 1.019
- EREG cg19308222 promoter methylation Mean: 0.356
- FAM111B cg13864937 promoter methylation Mean: 0.508
- FLJ10726 cg14145762 promoter methylation Mean: 0.436
- FLJ11200 cg09001953 promoter methylation Mean: 0.482
- FLJ23514 cg16404106 promoter methylation Mean: 0.628
- FLRT3 cg23127998 promoter methylation Mean: 0.397
- FLT3LG cg01667384 promoter methylation Mean: 0.249
- FXYD7 cg22392666 promoter methylation Mean: 1.028
- G10 cg02798801 promoter methylation Mean: 0.608
- GABRB2 cg16509658 promoter methylation Mean: 0.219
- GALNT4 cg16606638 promoter methylation Mean: 0.265
- GAS8 cg03634997 promoter methylation Mean: 1.082
- GBX2 cg23095584 promoter methylation Mean: 0.468
- GNAS cg27661264 promoter methylation Mean: 0.565
- GRB10 cg26163537 promoter methylation Mean: 0.312
- GUP1 cg24938727 promoter methylation Mean: 0.640
- HACE1 cg23047681 promoter methylation Mean: 0.204
- HGF cg06745740 promoter methylation Mean: 0.594
- HNRNPG-T cg22062068 promoter methylation Mean: 0.977
- HOXB4 cg25145670 promoter methylation Mean: 0.488
- HRASLS cg08376864 promoter methylation Mean: 0.853
- HYPK cg00480356 promoter methylation Mean: 0.818
- ICAM1 cg08607082 promoter methylation Mean: 0.244
- IFI16 cg07463059 promoter methylation Mean: 0.582
- IFI44 cg07107453 promoter methylation Mean: 0.513
- IFNA2 cg13235447 promoter methylation Mean: 0.697
- IGF2AS cg20792294 promoter methylation Mean: 0.323
- IGFBP5 cg19008649 promoter methylation Mean: 0.370
- IGSF9 cg19111262 promoter methylation Mean: 0.826
- IHH cg17178336 promoter methylation Mean: 0.709
- IL2RG cg01361446 promoter methylation Mean: 1.103
- IL18 cg11304234 promoter methylation Mean: 0.646
- INPP5B cg10784030 promoter methylation Mean: 0.366
- ITGB3BP cg18464559 promoter methylation Mean: 0.168
- KA21 cg23776012 promoter methylation Mean: 0.641
- KCNA3 cg03483626 promoter methylation Mean: 0.326
- KCNAB3 cg14918082 promoter methylation Mean: 0.852
- KCNB2 cg11754206 promoter methylation Mean: 0.551
- KCNK10 cg17671157 promoter methylation Mean: 1.059
- KLK7 cg19953406 promoter methylation Mean: 0.983
- LAMB1 cg10064162 promoter methylation Mean: 0.426
- LDHD cg24429836 promoter methylation Mean: 0.760
- LIG4 cg08216792 promoter methylation Mean: 0.356
- LYNX1 cg24046110 promoter methylation Mean: 0.430
- MC3R cg19226099 promoter methylation Mean: 1.057
- MGC26856 cg07684809 promoter methylation Mean: 0.489
- MLNR cg02620013 promoter methylation Mean: 0.755
- MPHOSPH6 cg16119274 promoter methylation Mean: 0.444
- MSX1 cg03199651 promoter methylation Mean: 0.288
- MYOD1 cg24322623 promoter methylation Mean: 0.931
- NCKIPSD cg04244987 promoter methylation Mean: 0.392
- NDP cg11614809 promoter methylation Mean: 0.756
- NEFH cg16042149 promoter methylation Mean: 1.041
- NEIL2 cg14329976 promoter methylation Mean: 0.360
- NME5 cg13707560 promoter methylation Mean: 1.225
- NME5 cg25507001 promoter methylation Mean: 0.889
- NOC3L cg07270175 promoter methylation Mean: 0.614
- NOX4 cg17063929 promoter methylation Mean: 0.483
- NPAS1 cg09628601 promoter methylation Mean: 0.553
- NRXN1 cg10917619 promoter methylation Mean: 0.867
- OR1N1 cg14598387 promoter methylation Mean: 0.606
- OR10J1 cg15700197 promoter methylation Mean: 0.679
- PACS1 cg01663295 promoter methylation Mean: 0.625
- PCDHB13 cg14592099 promoter methylation Mean: 0.747
- PCDHB13 cg24435562 promoter methylation Mean: 0.441
- PCDHGA12 cg11647681 promoter methylation Mean: 0.936
- PCGF5 cg17001035 promoter methylation Mean: 0.893
- PEPD cg06546607 promoter methylation Mean: 0.266
- PEX5L cg02430692 promoter methylation Mean: 0.511
- PI3 cg02442161 promoter methylation Mean: 0.857
- PIGL cg05310071 promoter methylation Mean: 0.351
- POU3F3 cg20291049 promoter methylation Mean: 0.387
- POU4F2 cg24199834 promoter methylation Mean: 0.287
- PTCH2 cg15329642 promoter methylation Mean: 0.789
- PTPN5 cg17233601 promoter methylation Mean: 0.801
- RASGEF1A cg07871503 promoter methylation Mean: 0.945
- RBPSUHL cg21835643 promoter methylation Mean: 1.018
- REM1 cg12153542 promoter methylation Mean: 0.664
- REM1 cg26299767 promoter methylation Mean: 0.727
- RLN3R1 cg12238343 promoter methylation Mean: 0.732
- RPL39L cg07441272 promoter methylation Mean: 0.691
- RRM2B cg07125123 promoter methylation Mean: 0.370
- RYR1 cg05471297 promoter methylation Mean: 0.480
- S100A12 cg02813121 promoter methylation Mean: 0.941
- SCUBE2 cg01081263 promoter methylation Mean: 0.693
- SCUBE2 cg19237879 promoter methylation Mean: 0.670
- SEMA3E cg08274234 promoter methylation Mean: 0.306
- SEMA6C cg01958916 promoter methylation Mean: 0.267
- SEPN1 cg21187265 promoter methylation Mean: 0.387
